Assay results reported in patent US11865098B1, “Methods and compositions for treating excessive sleepiness” (Axsome Malta Ltd., priority 2017, dated 2024).

Assays:
Format in all cases: in vivo, human
[1] = test system: adult patients with OSA and ES; experiment: EQ-5D-5L, 12-week parallel study in OSA; conditions: week 12
Method: This was a 12-week, double-blind, placebo-controlled, parallel-design study. Patients were randomized (1:1:2:2:2) to APC 37.5 mg, 75 mg, 150 mg, or 300 mg, or placebo for 12 weeks, and were stratified by adherence or nonadherence with primary OSA therapy.
The SF-36 v2 consists of 2 summary scales (Physical Component Summary and Mental Component Summary) and 8 specific health status domains (Physical Function, Role Physical, Bodily Pain, General Health, Vitality, Social Functioning, Role Emotional, Mental Health) (Ware Jr et al., User's Manual for the SF-36v2™ Health Survey (2nd ed). QualityMetric Incorporated (Lincoln, RI); 2007). […]
Efficacy analyses were based on the modified intent-to-treat (mITT) population; there was no multiplicity adjustment for the SF-36 v2 or EQ-5D-5L. SF-36 v2 scores were scaled from 0 to 100 (higher scores on all scales represent better health), transformed to norm-based scores using US general-population data from SF-36 Manuals (Ware Jr et al., User's Manual for the SF-36v2™ Health Survey (2nd ed.). QualityMetric Incorporated (Lincoln, RI); 2007), and were analyzed using a mixed-effect model with repeated measures (MMRM); and baseline value of the efficacy endpoint was used to determine differences in changes from baseline. EQ-5D-5L VAS and index-score data were analyzed using an MMRM model. […]

[2] = test system: patients with narcolepsy type 1 or type 2; experiment: ESS, 12-week phase 3 study in narcolepsy
Method: The ESS is a subjective sleepiness test that is well known in the art and routinely used to measure the sleepiness level of a subject. The scale is intended to measure daytime sleepiness through the use of a short questionnaire that asks the subject to rate his or her probability of falling asleep on a scale of increasing probability from 0 to 3 for eight different situations that most people engage in during their daily lives. The scores for the eight questions are added together to obtain a single number that estimates the subject's average sleep propensity (ASP). A number in the 0-10 range is considered to be normal while 11-12 indicates mild excessive sleepiness, 13-15 indicates moderate excessive sleepiness, and 16 or higher indicates severe excessive sleepiness. Narcolepsy patients have an average score of about 17. Obstructive sleep apnea (OSA) patients with excessive sleepiness have an average score of about 15.
The study was a 12-week, double-blind, randomized, placebo-controlled, parallel-group study. […]
Efficacy analyses were based on the modified intent-to-treat population (mITT), defined as all patients who were randomized, received at least 1 dose of study drug, and had baseline and at least 1 post-baseline evaluation of both MWT and ESS. MWT and ESS were analyzed using a mixed-effect repeated measures (MMRM) model. PGI-C was analyzed using a chi-square test. […]

[3] = test system: adults with OSA and excessive sleepiness; experiment: PGI-C and CGI-C, phase 3 randomized withdrawal study in OSA; conditions: Double-Blind Withdrawal Phase, switched to placebo compared with stayed on APC
Method: The study was a double-blind, placebo-controlled, enriched, randomized withdrawal design (FIG. 1). In the Titration Phase (weeks 1-2), patients started on a once-daily dose of APC 75 mg and could be titrated up or down every 3 days to reach a maximum tolerated dose of APC 75, 150, or 300 mg. In the Stable-Dose Phase (weeks 3-4), patients continued to receive the dose that they were titrated to in the Titration Phase for 2 weeks. […]
Efficacy was based on change from week 4 to 6 on the co-primary endpoints of MWT and ESS and percentage of patients reported as improved on the PGI-C and Clinician Global Impression of Change (CGI-C); assessed on a 7-point scale from 1 (very much improved) to 7 (very much worse).
MWT and ESS data were analyzed using a mixed-effect model repeated measures (MMRM); PGI-C and CGI-C were evaluated using a chi-square test. […] Safety and tolerability were evaluated based on treatment-emergent adverse events (TEAEs), vital signs, and laboratory values.

NC(=O)OC[C@H](N)Cc1ccccc1 [JZP-110, (R)-2-amino-3-phenylpropyl carbamate]
EQ-5D-5L index value, effect [1]: no significant effects
EQ-5D VAS, effect vs placebo ([1]; appeared dose dependent): not significantly different from placebo
ESS scores, effect at week 1 ([2]; 150 and 300 mg, as early as week 1): Statistically significant effects
ESS scores relative to placebo ([2]; all doses, week 12, mITT): significantly decreased ESS scores relative to placebo
Worsening of overall condition on the PGI-C and CGI-C [3]: Significantly higher percentages of patients who were switched to placebo experienced a worsening of their overall condition
